Assay results reported in the RepoRT retention time repository.

Test: RP, Waters ACQUITY UPLC BEH C18, 50 × 2.1 mm, 1.7 µm, 35 °C, 0.25 mL/min, estimated dead time 0.44 min; A: water + 0.1% acetic acid, pH 3; B: acetonitrile; gradient (min/%B) 0/5 1.12/5 6.41/99.5 10.01/99.5
Conditions: stereoisomer not certain

SMILES	LC retention time [min]
COCC(NC(C)=O)C(=O)NCc1ccccc1 (stereo not given) [lacosamide]	4
O=C(O)CCCCCCCC(=O)O [nonanedioic acid]	5
CCCCCCCCCC(=O)O [decanoic acid]	10
CCCCCCCCCCCCCCCCC(=O)O [heptadecanoic acid]	15
CCCCCCCCCCCCCCCCCC(=O)OCC(O)COP(=O)([O-])OCC[N+](C)(C)C (stereo not given) [lysoPC(18:0/0:0)]	11.5
O=C(O)CCCCCCCCCCCCCCC(=O)O [hexadecanedioic acid]	9.37

Continued, values first:

LC retention time [min]	SMILES
1	NC(Cc1c[nH]c2ccccc12)C(=O)O (stereo not given) [tryptophan]
4	NC(Cc1ccccc1)C(=O)NC(Cc1ccccc1)C(=O)O (stereo not given) [Phe-phe]
2	NC(=O)CCC(NC(=O)Cc1ccccc1)C(=O)O (stereo not given) [phenylacetylglutamine]
2	O=S(=O)([O-])Oc1c[nH]c2ccccc12.[K+] [indoxyl sulfuric acid]
